From patent publication US6624140B1, “Synthetic peptides with antimicrobial and endotoxin neutralizing properties for management of the sepsis syndrome” (Academisch Ziekenhuis Bij de Universiteit van Amsterdam …, priority 1997, dated 2003)
No end group written: not given here.

Columns and labels:
Staphylococcus aureus = assay: Bactericidal activity in liquid culture, S. aureus; assay type: cell-based; details: for effect on cell-density of Gram-positive bacterial cultures: in words; for % bacteria killed: 10^7 S. aureus bacteria/ml LB medium 37° C., concentration effective dose 3 (M^−6)
Method: FIGS. 1A and 1B. The effect of synthetic peptides on the survival of E. coli 0111:B4 (panel A) or S. aureus (panel B). Logarithmically growing bacterial cells at a density of 10^7 cells/ml in Luria-Bertani (LB) medium were incubated with synthetic peptides at concentrations of 3, 5 and 7 μg/ml (1, 2 and 3 μM) at 37° C. for 1 h and the residual cell density expressed as a percentage of the value obtained from bacterial cultures without added peptides.
A peptide encompassing a selected LPS-binding domain from a well characterized human antiendotoxin protein, known as bactericidal/permeability increasing protein (BPI), from amino acids 85 to 102, denoted as BPI(85-102), was included for a direct comparison of the efficacy of the endotoxin-binding domain of a naturally occurring protein and the synthetic peptides of the invention. The amino acid sequence of the BPI(85-102) peptide is:
The BPI(85-102) reference peptide was synthesized as previously described for peptides of the invention and provided with a C-terminal Cys residue for the purpose of biotinylation as previously described. […] Incubation of various concentrations of the synthetic peptides according to the invention for a limited time period on the survival of both types of bacteria again illustrated their potent anti-microbial activity as opposed to that of the BPI(85-102) peptide (FIG. 1) with the sequence corresponding to that of the potential LPS binding domain of the native BPI protein. This is indicative of a broad specificity of the synthetic peptides, in keeping with the general bactericidal properties of this class of linear amphipathic α-helical peptides. […] The B2 residue in the N-terminal repetitive sequence element in each instance, instead of an aromatic amino acid residue, as specified by the formula of the invention, was replaced with an Ala residue and the hydrophobic (C2)n element made hydrophilic by substitution with Lys and Cys residues.

[1] = test system: IL-6 production by endotoxin; assay: IL-6 production in diluted whole blood, simultaneous addition of LPS and peptide; assay type: cell-based, human; details: LPS 1 ng/ml; concentrations as low as 1 μM; control even at 4-fold higher concentration; heparin 100 I.U/ml
Method: FIG. 9. Effect of simultaneous addition of E. coli 0111:B4 LPS and synthetic peptides on IL-6 production in whole blood diluted 1 in 10. Synthetic peptides BP1 or BP2 or the control peptide BPI(85-102) at the concentrations indicated, were added together with E. coli 0111:B4 LPS at 1 ng/ml to diluted whole blood containing heparin at 100 I.U/ml. IL-6 concentration was determined after incubation for 16 h at 37° C. Each value is the mean of triplicate experiments. Controls contained no added peptide.
The endotoxin neutralizing activities of the synthetic peptides of the invention were evaluated by investigating the effect on LPS-stimulated release of the pro-inflammatory cytokines, tumor necrosis factor alpha (TNF-α), interleukin-6 (IL-6) or interleukin-8 (IL-8) in a well characterized in vitro human whole blood bioassay system. In one series of experiments, dilutions of E. coli 0111:B4 LPS from 0.2 to 1 ng/ml were pre-incubated with synthetic peptides at 10 μg/ml concentrations in RPMI medium for 30 min at 20° C. and added to diluted whole blood. Cytokine concentrations in the supernatants were determined after further incubation for 16 h at 37° C. in the presence of 5% CO2 by specific and sensitive ELISA kits (CLB, Amsterdam, The Netherlands). In another series of experiments, the effects of synthetic peptides at concentrations of 2,5, 5 and 10 μg/ml on IL-6 induction by 1 ng/ml 0111:B4 LPS was examined after simultaneous addition of synthetic peptide and LPS to diluted whole blood. […] The control peptide BPI(85-102) was ineffective in reducing cytokine production under these conditions even at a 4-fold higher concentration. This probably reflects the differences in binding affinity for Lipid A of BP1 and BP2 compared with the BPI(85-102) peptide of approximately 5 and 10-fold, respectively. An additional factor which may have influenced binding of the control peptide to endotoxin is the presence of heparin employed as an anti-coagulant at a concentration of 100 I.U/ml in the assay system. […]

TNF-α production = assay: TNF-α in whole blood ex vivo after pre-incubation of LPS with peptide; assay type: cell-based, human; details: 1 to 10 μg/ml pre-incubated with 1 ng/ml LPS, even at lowest concentration 1 μg/ml, 4 h at 37° C.
Method: FIG. 11. Effect of pre-incubation of E. coli 0111:B4 LPS with synthetic peptides or Polymyxin B on TNF-α levels in whole blood ex vivo. The indicated amounts of synthetic, control peptides or PmB were pre-incubated with E. coli 0111:B4 LPS at 1 ng/ml for […] at 23° C., added to whole blood containing heparin at 2 I.U/ml and the TNF-α concentrations determined after incubation for 4 h at 37° C. Each value is the mean of triplicate experiments. Controls only contained LPS.
In addition, the LPS-neutralizing activity of selected synthetic peptides of the invention were compared in a more complex environment of whole blood ex vivo to determine the effect of physiological concentrations of blood components such as plasma proteins, blood cells etc. on the detoxification efficacy. In pre-incubation experiments, concentrations of synthetic peptides, control peptide or PmB from 1 to 10 μg/ml were pre-incubated with 1 ng/ml E. coli 0111:B4 LPS in pyrogen-free saline for 30 min at 23° C., added to venous blood containing heparin at 2 I.U/ml as anti-coagulant and incubated for 4 h at 37° C. TNF-α concentrations were determined in appropriately diluted cell-free supernatants as described before.

GKWKLFKKAFKKFLKILAC-OH [BP2, Gly-Lys-Trp-Lys-Leu-Phe-Lys-Lys-Ala-Phe-Lys-Lys-Phe-Leu-Lys-Ile-Leu-Ala-Cys]
effect on cell-density of Gram-positive bacterial cultures (Staphylococcus aureus): dose-dependent reduction | inhibition of IL-6 production [1]: completely inhibiting | inhibition of TNF-α production (TNF-α production): almost complete inhibition

GRLRKKWKAFKKFLKILAC [BP1]
% bacteria killed (Staphylococcus aureus): 34% | effect on cell-density of Gram-positive bacterial cultures (Staphylococcus aureus): dose-dependent reduction | inhibition of IL-6 production [1]: completely inhibiting | inhibition of TNF-α production (TNF-α production): almost complete inhibition

Ile-Lys-Ile-Ser-Gly-Lys-Trp-Lys-Ala-Gin-Lys-Arg-Phe-Leu-Lys-Met-Ser-Gly-(Cys) (IKISGKWKAQKRFLKMSGC; listed as Homo sapiens) [BPI(85-102), reference compound]
% bacteria killed (Staphylococcus aureus): 0% | effect on cell-density of Gram-positive bacterial cultures (Staphylococcus aureus): no effect | inhibition of IL-6 production [1]: ineffective | inhibition of TNF-α production (TNF-α production): almost complete inhibition
